Assay results taken from patent US11571423B2, “Small molecule modulators of human sting” (Curadev Pharma Limited, priority 2017, dated 2023).

What was measured:
hSTING(R232) = hSTING(R232) (Homo sapiens, UniProt Q86WV6, H232R); experiment: Luciferase reporter assay in HEK293T-hSTING-Luciferase cells, R232 (wild type) human STING; format: cell-based; settings: 20 hr stimulation, read-out: R232 human activity (EC50 range)
In short: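 Clonal HEK293T cells stably expressing STING from a pUNO-1 plasmid plus an ISRE/ISG54-driven secreted luciferase reporter; 5×10^5 cells stimulated with compound for 20 hr. Supernatant luciferase read by luminescence, giving fold-induction over baseline and EC50.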

[1] = target: cynomolgus monkey STING protein (Macaca fascicularis, UniProt A0A2R3XZA6); experiment: Luciferase reporter assay, cynomolgus monkey STING overexpressed in HEK293T cells; format: cell-based; settings: cynomolgus monkey STING overexpressed in HEK293T cells; read-out: Cynomolgus monkey STING activity (EC50 range)
In short: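 HEK293T cells overexpressing cynomolgus STING with a secreted luciferase reporter were stimulated with compound for 20 hr. Supernatant reporter activity was then measured by Quanti-Luc luminescence, and EC50 values were derived.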

IRF pathway = experiment: Reporter gene expression assay in THP1-Dual cells, IRF axis (secreted Lucia luciferase); format: cell-based, human; settings: Homo sapiens, 20 hr stimulation, EC50 range class, read-out: THP-IRF activity
In short: (§1)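 Human THP-1 monocyte-derived cells with two inducible reporters: 5×10^5 cells seeded and stimulated with compounds for 20 hr. SEAP (QUANTI-Blue) and Lucia luciferase (QUANTI-Luc) measured in supernatant; EC50 values reported as ranges.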

NF-κB pathway = experiment: Reporter gene expression assay in THP1-Dual cells, NFkB axis (secreted SEAP); format: cell-based, human; settings: Homo sapiens, 20 hr stimulation, EC50 range class, read-out: THP-NFκB activity
In short: as §1

hSTING(HAQ) = hSTING(HAQ) (Homo sapiens, UniProt Q86WV6, G230A/H232R/R293Q/R71H); experiment: Luciferase reporter assay in HEK293T-hSTING-Luciferase cells, HAQ polymorph; format: cell-based; settings: HAQ polymorph of human STING, EC50 range class
In short: (§2)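 HEK293T cells stably co-express the hSTING variant (hEF1-HTLV promoter) and an ISRE/ISG54 IRF-inducible luciferase reporter. Clones with minimal ligand-independent activation were used. Cells were stimulated with compounds for 20 hr, and secreted luciferase in the supernatant was read by luminescence to give EC50.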

hSTING(H232) = hSTING(H232) (Homo sapiens, UniProt Q86WV6); experiment: Luciferase reporter assay in HEK293T-hSTING-Luciferase cells, H232/REF polymorph; format: cell-based; settings: H232/REF polymorph of human STING, EC50 range class
In short: as §2

Chain of hSTING(HAQ) (Q86WV6 whole entry R71H/G230A/H232R/R293Q): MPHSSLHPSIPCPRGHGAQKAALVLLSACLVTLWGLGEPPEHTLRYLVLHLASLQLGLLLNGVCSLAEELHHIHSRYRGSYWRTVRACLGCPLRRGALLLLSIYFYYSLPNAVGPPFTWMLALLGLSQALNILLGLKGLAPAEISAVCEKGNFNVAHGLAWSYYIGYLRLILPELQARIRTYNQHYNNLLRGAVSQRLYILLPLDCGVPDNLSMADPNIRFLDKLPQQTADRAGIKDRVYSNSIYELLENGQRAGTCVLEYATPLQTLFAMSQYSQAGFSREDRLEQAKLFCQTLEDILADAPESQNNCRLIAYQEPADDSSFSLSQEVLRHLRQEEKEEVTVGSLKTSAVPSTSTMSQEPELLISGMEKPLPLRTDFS
Chain of hSTING(H232) (Q86WV6 whole entry): as the sequence (Q86WV6 whole entry R71H/G230A/H232R/R293Q) above, with H71R, A230G, R232H, Q293R counted along it
Chain of hSTING(R232) (Q86WV6 whole entry H232R): as the sequence (Q86WV6 whole entry R71H/G230A/H232R/R293Q) above, with H71R, A230G, Q293R counted along it
Chain of cynomolgus monkey STING protein (A0A2R3XZA6 entry or part of it): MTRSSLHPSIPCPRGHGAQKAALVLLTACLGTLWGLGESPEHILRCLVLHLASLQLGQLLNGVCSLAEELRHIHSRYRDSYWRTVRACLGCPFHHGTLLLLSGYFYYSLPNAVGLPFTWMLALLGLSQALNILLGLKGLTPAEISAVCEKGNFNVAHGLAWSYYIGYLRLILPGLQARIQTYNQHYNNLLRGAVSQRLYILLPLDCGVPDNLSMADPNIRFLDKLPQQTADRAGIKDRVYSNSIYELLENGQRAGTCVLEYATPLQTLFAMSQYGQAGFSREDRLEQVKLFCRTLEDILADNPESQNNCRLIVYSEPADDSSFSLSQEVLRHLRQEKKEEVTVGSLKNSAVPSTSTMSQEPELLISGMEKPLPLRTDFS

Structure (SMILES): C[C@H]1c2ccc(C(=O)NCc3c(F)cc(F)cc3F)cc2N(Cc2c(F)ccc(F)c2Cl)C(=O)N1C [Example 179, (S)-1-(2-chloro-3,6-difluorobenzyl)-3,4-dimethyl-2-oxo-N-(2,4,6-trifluorobenzyl)-1,2,3,4-tetrahydroquinazoline-7-carboxamide]
- EC50 (hSTING(R232)): < 1000 nM
- EC50 [1]: < 1000 nM
- EC50 (IRF pathway): < 1000 nM
- EC50 (NF-κB pathway): < 1000 nM
- EC50 (hSTING(HAQ)): < 1000 nM
- EC50 (hSTING(H232)): < 1000 nM

Structure (SMILES): Cc1nccc(CN2C(=O)N(C)C(C)c3ccc(C(=O)NCc4c(F)cc(F)cc4F)cc32)c1F (stereo not drawn) [Example 180, 1-((3-fluoro-2-methylpyridin-4-yl)methyl)-3,4-dimethyl-2-oxo-N-(2,4,6-trifluorobenzyl)-1,2,3,4-tetrahydroquinazoline-7-carboxamide]
- EC50 (hSTING(R232)): < 1000 nM
- EC50 [1]: < 1000 nM
- EC50 (IRF pathway): < 1000 nM
- EC50 (NF-κB pathway): < 1000 nM
- EC50 (hSTING(HAQ)): < 1000 nM
- EC50 (hSTING(H232)): < 1000 nM

Structure (SMILES): C[C@H]1c2ccc(C(=O)NCc3c(F)cc(F)cc3F)cc2N(Cc2c(N)cccc2F)C(=O)N1C [Example 182, (S)-1-(2-amino-6-fluorobenzyl)-3,4-dimethyl-2-oxo-N-(2,4,6-trifluorobenzyl)-1,2,3,4-tetrahydroquinazoline-7-carboxamide]
- EC50 (hSTING(R232)): < 1000 nM
- EC50 [1]: < 1000 nM
- EC50 (IRF pathway): < 1000 nM
- EC50 (NF-κB pathway): < 1000 nM
- EC50 (hSTING(HAQ)): < 1000 nM
- EC50 (hSTING(H232)): < 1000 nM

Structure (SMILES): C[C@H]1c2ccc(C(=O)NCc3c(F)cc(F)cc3F)cc2N(Cc2c(F)ccc(N)c2Cl)C(=O)N1C [Example 188, (S)-1-(3-amino-2-chloro-6-fluorobenzyl)-3,4-dimethyl-2-oxo-N-(2,4,6-trifluorobenzyl)-1,2,3,4-tetrahydroquinazoline-7-carboxamide]
- EC50 (hSTING(R232)): < 1000 nM
- EC50 [1]: < 1000 nM
- EC50 (IRF pathway): < 1000 nM
- EC50 (NF-κB pathway): < 1000 nM
- EC50 (hSTING(HAQ)): < 1000 nM
- EC50 (hSTING(H232)): < 1000 nM

Structure (SMILES): C[C@H]1c2ccc(C(=O)NCc3c(F)cc(F)cc3F)cc2N(Cc2c(F)cncc2Br)C(=O)N1C [Example 232, (S)-1-((3-bromo-5-fluoropyridin-4-yl)methyl)-3,4-dimethyl-2-oxo-N-(2,4,6-trifluorobenzyl)-1,2,3,4-tetrahydroquinazoline-7-carboxamide]
- EC50 (hSTING(R232)): < 1000 nM
- EC50 [1]: < 1000 nM
- EC50 (IRF pathway): < 1000 nM
- EC50 (NF-κB pathway): < 1000 nM
- EC50 (hSTING(HAQ)): < 1000 nM
- EC50 (hSTING(H232)): < 1000 nM

Structure (SMILES): COc1ccc(F)c(F)c1CN1C(=O)N(C)[C@@H](C)c2ccc(C(=O)NCc3c(F)cc(F)cc3F)cc21 [Example 241, (S)-1-(2,3-difluoro-6-methoxybenzyl)-3,4-dimethyl-2-oxo-N-(2,4,6-trifluorobenzyl)-1,2,3,4-tetrahydroquinazoline-7-carboxamide]
- EC50 (hSTING(R232)): < 1000 nM
- EC50 [1]: < 1000 nM
- EC50 (IRF pathway): < 1000 nM
- EC50 (NF-κB pathway): < 1000 nM
- EC50 (hSTING(HAQ)): < 1000 nM
- EC50 (hSTING(H232)): < 1000 nM

Structure (SMILES): C[C@H]1c2ccc(C(=O)NCc3c(F)cc(F)cc3F)cc2N(Cc2c(O)ccc(F)c2F)C(=O)N1C [Example 242, (S)-1-(2,3-difluoro-6-hydroxybenzyl)-3,4-dimethyl-2-oxo-N-(2,4,6-trifluorobenzyl)-1,2,3,4-tetrahydroquinazoline-7-carboxamide]
- EC50 (hSTING(R232)): < 1000 nM
- EC50 [1]: < 1000 nM
- EC50 (IRF pathway): < 1000 nM
- EC50 (NF-κB pathway): < 1000 nM
- EC50 (hSTING(HAQ)): < 1000 nM
- EC50 (hSTING(H232)): < 1000 nM

Structure (SMILES): C[C@H]1c2ccc(C(=O)NCc3c(F)cc(F)cc3F)cc2N(Cc2c(F)ccc(OCCCO)c2F)C(=O)N1C [Example 257, (S)-1-(2,6-difluoro-3-(3-hydroxypropoxy)benzyl)-3,4-dimethyl-2-oxo-N-(2,4,6-trifluorobenzyl)-1,2,3,4-tetrahydroquinazoline-7-carboxamide]
- EC50 (hSTING(R232)): < 1000 nM
- EC50 [1]: 1000 to 10000 nM
- EC50 (IRF pathway): < 1000 nM
- EC50 (NF-κB pathway): < 1000 nM
- EC50 (hSTING(HAQ)): < 1000 nM
- EC50 (hSTING(H232)): < 1000 nM

Structure (SMILES): Cc1nccc(CN2C(=O)N(C)[C@@H](C)c3ccc(C(=O)NCc4c(F)cc(F)cc4F)cc32)c1F [Example 261, (S)-1-((3-fluoro-2-methylpyridin-4-yl)methyl)-3,4-dimethyl-2-oxo-N-(2,4,6-trifluorobenzyl)-1,2,3,4-tetrahydroquinazoline-7-carboxamide]
- EC50 (hSTING(R232)): < 1000 nM
- EC50 [1]: < 1000 nM
- EC50 (IRF pathway): < 1000 nM
- EC50 (NF-κB pathway): < 1000 nM
- EC50 (hSTING(HAQ)): < 1000 nM
- EC50 (hSTING(H232)): < 1000 nM

Structure (SMILES): C[C@H]1c2ccc(C(=O)NCc3c(F)cc(F)cc3F)cc2N(Cc2cc(O)ccc2F)C(=O)N1C [Example 262, (S)-1-(2-fluoro-5-hydroxybenzyl)-3,4-dimethyl-2-oxo-N-(2,4,6-trifluorobenzyl)-1,2,3,4-tetrahydroquinazoline-7-carboxamide]
- EC50 (hSTING(R232)): < 1000 nM
- EC50 [1]: < 1000 nM
- EC50 (IRF pathway): < 1000 nM
- EC50 (NF-κB pathway): < 1000 nM
- EC50 (hSTING(HAQ)): < 1000 nM
- EC50 (hSTING(H232)): < 1000 nM

Structure (SMILES): C[C@H]1c2ccc(C(=O)NCc3c(F)cc(F)cc3F)cc2N(Cc2cc(O)cc(F)c2F)C(=O)N1C [Example 281, (S)-1-(2,3-difluoro-5-hydroxybenzyl)-3,4-dimethyl-2-oxo-N-(2,4,6-trifluorobenzyl)-1,2,3,4-tetrahydroquinazoline-7-carboxamide]
- EC50 (hSTING(R232)): < 1000 nM
- EC50 [1]: < 1000 nM
- EC50 (IRF pathway): < 1000 nM
- EC50 (NF-κB pathway): < 1000 nM
- EC50 (hSTING(HAQ)): < 1000 nM
- EC50 (hSTING(H232)): < 1000 nM

Structure (SMILES): C[C@H]1c2ccc(C(=O)NCc3c(F)cc(F)cc3F)cc2N(Cc2cc(OCCCO)cc(F)c2F)C(=O)N1C [Example 283, (S)-1-(2,3-difluoro-5-(3-hydroxypropoxy)benzyl)-3,4-dimethyl-2-oxo-N-(2,4,6-trifluorobenzyl)-1,2,3,4-tetrahydroquinazoline-7-carboxamide]
- EC50 (hSTING(R232)): < 1000 nM
- EC50 [1]: 1000 to 10000 nM
- EC50 (IRF pathway): < 1000 nM
- EC50 (NF-κB pathway): < 1000 nM
- EC50 (hSTING(HAQ)): < 1000 nM
- EC50 (hSTING(H232)): < 1000 nM

Structure (SMILES): C[C@H]1c2ccc(C(=O)NCc3c(F)cc(F)cc3F)cc2N(Cc2c(F)cc(OCCNS(C)(=O)=O)cc2F)C(=O)N1C [Example 290, (S)-1-(2,6-difluoro-4-(2-(methylsulfonamido)ethoxy)benzyl)-3,4-dimethyl-2-oxo-N-(2,4,6-trifluorobenzyl)-1,2,3,4-tetrahydroquinazoline-7-carboxamide]
- EC50 (hSTING(R232)): < 1000 nM
- EC50 [1]: < 1000 nM
- EC50 (IRF pathway): < 1000 nM
- EC50 (NF-κB pathway): < 1000 nM
- EC50 (hSTING(HAQ)): < 1000 nM
- EC50 (hSTING(H232)): < 1000 nM

Structure (SMILES): COc1cnc(C)c(F)c1CN1C(=O)N(C)[C@@H](C)c2ccc(C(=O)NCc3c(F)cc(F)cc3F)cc21 [Example 296, (S)-1-((3-fluoro-5-methoxy-2-methylpyridin-4-yl)methyl)-3,4-dimethyl-2-oxo-N-(2,4,6-trifluorobenzyl)-1,2,3,4-tetrahydroquinazoline-7-carboxamide]
- EC50 (hSTING(R232)): < 1000 nM
- EC50 [1]: < 1000 nM
- EC50 (IRF pathway): < 1000 nM
- EC50 (NF-κB pathway): < 1000 nM
- EC50 (hSTING(HAQ)): < 1000 nM
- EC50 (hSTING(H232)): < 1000 nM

Structure (SMILES): C[C@H]1c2ccc(C(=O)NCc3c(F)cc(F)cc3F)cc2N(Cc2c(F)cc(O)cc2Cl)C(=O)N1C [Example 298, (S)-1-(2-chloro-6-fluoro-4-hydroxybenzyl)-3,4-dimethyl-2-oxo-N-(2,4,6-trifluorobenzyl)-1,2,3,4-tetrahydroquinazoline-7-carboxamide]
- EC50 (hSTING(R232)): < 1000 nM
- EC50 [1]: < 1000 nM
- EC50 (IRF pathway): < 1000 nM
- EC50 (NF-κB pathway): < 1000 nM
- EC50 (hSTING(HAQ)): < 1000 nM
- EC50 (hSTING(H232)): < 1000 nM
